Data set [1] has as its system Burkholderia mallei strain CHN7. Description: microbe, parasite or virus in culture. In kind it is cell-based.
Data set [2] deals with Bacillus anthracis strain Vollum 1 b. Description: microbe, parasite or virus in culture. It counts as cell-based.
The target in data set [3] is S. aureus RNA polymerase core enzyme, S. aureus σ^A (Staphylococcus aureus, UniProt P47768+Q2G0N5). Description: Fluorescence-detected inhibition of Staphylococcus aureus RNA polymerase. It counts as biochemical. The method, then: (§1) Fluorescence-detected RNA polymerase assays with E. coli RNA polymerase were performed by a modification of the procedure of Kuhlman et al., 2004 [Kuhlman, P., Duff, H. & Galant, A. (2004) A fluorescence-based assay for multisubunit DNA-dependent RNA polymerases. Anal. Biochem. 324, 183-190]. Reaction mixtures contained (20 μl): 0-100 nM test compound, 75 nM E. coli RNA polymerase σ^70 holoenzyme, 20 nM 384 bp DNA fragment containing the bacteriophage T4 N25 promoter, 100 μM ATP, 100 μM GTP, 100 μM UTP, 100 μM CTP, 50 mM Tris-HCl, pH 8.0, 100 mM KCl, 10 mM MgCl2, 1 mM DTT, 10 μg/ml bovine serum albumin, and 5.5% glycerol. Reaction components other than DNA and NTPs were pre-incubated for 10 min at 37° C. Reactions were carried out by addition of DNA and incubation for 5 min at 37° C., followed by addition of NTPs and incubation for 60 min at 37° C. DNA was removed by addition of 1 μl 5 mM CaCl2 and 2 U DNaseI (Ambion, Inc.), followed by incubation for 90 min at 37° C. RNA was quantified by addition of 100 μl RiboGreen RNA Quantitation Reagent (Invitrogen, Inc.; 1:500 dilution in Tris-HCl, pH 8.0, 1 mM EDTA), followed by incubation for 10 min at 25° C., followed by measurement of fluorescence intensity [excitation wavelength=485 nm and emission wavelength=535 nm; QuantaMaster QM1 spectrofluorometer (PTI, Inc.)]. IC50 is defined as the concentration of inhibitor resulting in 50% inhibition of RNA polymerase activity.
Fluorescence-detected RNA polymerase assays with S. aureus RNA polymerase were performed as in Example 17.1, using reaction mixtures containing (20 μl): 0-100 nM test compound, 75 nM S. aureus RNA polymerase core enzyme, 300 nM S. aureus σ^A, 20 nM 384 bp DNA fragment containing the bacteriophage T4 N25 promoter, 100 μM ATP, 100 μM GTP, 100 μM UTP, 100 μM CTP, 40 mM Tris-HCl, pH 8.0, 80 mM NaCl, 5 mM MgCl2, 2.5 mM DTT, and 12.7% glycerol. IC50 is defined as the concentration of inhibitor resulting in 50% inhibition of RNA polymerase activity.

Data set [4] concerns Burkholderia pseudomallei strain Human/Blood/OH/US/1994. Description: microbe, parasite or virus in culture. In kind it is cell-based.
Data set [5] has as its system Enterococcus faecalis ATCC strain 19433. Briefly: MIC, spiral gradient endpoint assay, E. faecalis. The settings on record: for MIC: Enterococcus faecalis, ATCC19433, 16 h, read-out: MIC E. faecalis 19433.
Data set [6] has as its target M. tuberculosis RNA polymerase core enzyme, M. tuberculosis σ^A (Mycobacterium tuberculosis, UniProt P9WGY7+P9WGY9). Briefly: Fluorescence-detected inhibition of Mycobacterium tuberculosis RNA polymerase. In kind it is biochemical. The method, then: as §1
Fluorescence-detected RNA polymerase assays with M. tuberculosis RNA polymerase were performed as in Example 17.1, using reaction mixtures containing (20 μl): 0-100 nM test compound, 75 nM M. tuberculosis RNA polymerase core enzyme, 300 nM M. tuberculosis σ^A, 20 nM 384 bp DNA fragment containing the bacteriophage […] N25 promoter, 100 μM ATP, […], 100 μM UTP, 100 μM CTP, 40 mM Tris-HCl, pH 8.0, 80 mM NaCl, 5 mM MgCl2, 2.5 mM DTT, and 12.7% glycerol. IC50 is defined as the concentration of inhibitor resulting in 50% inhibition of RNA polymerase activity.

Data set [7] deals with Francisella tularensis strain SCHU4. Description: microbe, parasite or virus in culture. In kind it is cell-based.
In data set [8] the target is E. coli RNA polymerase σ^70 holoenzyme (Escherichia coli, UniProt P0A8T7+P0A8V2). Description: Fluorescence-detected inhibition of Escherichia coli RNA polymerase. In kind it is biochemical. The settings on record: read-out: IC50 E. coli RNAP. The method, then: as §1
Sequence of E. coli RNA polymerase σ^70 holoenzyme (P0A8V2 whole entry): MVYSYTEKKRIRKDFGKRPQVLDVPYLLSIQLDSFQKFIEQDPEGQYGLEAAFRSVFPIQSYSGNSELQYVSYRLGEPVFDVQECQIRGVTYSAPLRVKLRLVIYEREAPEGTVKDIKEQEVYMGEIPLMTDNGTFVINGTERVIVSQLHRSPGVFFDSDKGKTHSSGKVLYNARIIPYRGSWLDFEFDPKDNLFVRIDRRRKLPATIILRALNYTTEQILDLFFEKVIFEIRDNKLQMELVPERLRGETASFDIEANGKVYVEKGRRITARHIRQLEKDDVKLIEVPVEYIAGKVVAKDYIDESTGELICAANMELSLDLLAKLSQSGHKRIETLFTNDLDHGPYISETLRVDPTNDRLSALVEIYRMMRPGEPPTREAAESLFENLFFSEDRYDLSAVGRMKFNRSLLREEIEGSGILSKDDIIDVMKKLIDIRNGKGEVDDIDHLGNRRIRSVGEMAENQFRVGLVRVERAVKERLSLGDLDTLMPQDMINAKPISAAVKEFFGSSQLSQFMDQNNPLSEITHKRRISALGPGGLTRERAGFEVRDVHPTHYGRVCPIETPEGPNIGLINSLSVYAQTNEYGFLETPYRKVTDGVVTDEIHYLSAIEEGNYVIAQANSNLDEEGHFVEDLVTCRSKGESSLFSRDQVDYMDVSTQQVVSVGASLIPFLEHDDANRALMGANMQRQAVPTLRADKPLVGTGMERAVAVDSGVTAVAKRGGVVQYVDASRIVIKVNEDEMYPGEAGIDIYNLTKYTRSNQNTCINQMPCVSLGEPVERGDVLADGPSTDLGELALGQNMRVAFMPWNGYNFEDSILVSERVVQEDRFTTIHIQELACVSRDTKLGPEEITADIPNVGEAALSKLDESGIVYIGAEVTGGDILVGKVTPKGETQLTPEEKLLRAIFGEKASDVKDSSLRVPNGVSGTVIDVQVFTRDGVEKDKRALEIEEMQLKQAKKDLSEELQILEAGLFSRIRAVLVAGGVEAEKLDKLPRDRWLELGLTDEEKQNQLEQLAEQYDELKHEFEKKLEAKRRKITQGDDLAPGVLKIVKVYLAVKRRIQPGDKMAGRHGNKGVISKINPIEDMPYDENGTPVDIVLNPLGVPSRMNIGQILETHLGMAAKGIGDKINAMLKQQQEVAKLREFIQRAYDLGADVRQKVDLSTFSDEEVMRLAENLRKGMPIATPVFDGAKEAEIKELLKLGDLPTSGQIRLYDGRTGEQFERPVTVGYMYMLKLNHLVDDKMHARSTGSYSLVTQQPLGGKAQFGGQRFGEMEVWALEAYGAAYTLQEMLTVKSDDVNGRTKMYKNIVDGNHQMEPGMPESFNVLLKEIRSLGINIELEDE
Sequence of E. coli RNA polymerase σ^70 holoenzyme (P0A8T7 whole entry): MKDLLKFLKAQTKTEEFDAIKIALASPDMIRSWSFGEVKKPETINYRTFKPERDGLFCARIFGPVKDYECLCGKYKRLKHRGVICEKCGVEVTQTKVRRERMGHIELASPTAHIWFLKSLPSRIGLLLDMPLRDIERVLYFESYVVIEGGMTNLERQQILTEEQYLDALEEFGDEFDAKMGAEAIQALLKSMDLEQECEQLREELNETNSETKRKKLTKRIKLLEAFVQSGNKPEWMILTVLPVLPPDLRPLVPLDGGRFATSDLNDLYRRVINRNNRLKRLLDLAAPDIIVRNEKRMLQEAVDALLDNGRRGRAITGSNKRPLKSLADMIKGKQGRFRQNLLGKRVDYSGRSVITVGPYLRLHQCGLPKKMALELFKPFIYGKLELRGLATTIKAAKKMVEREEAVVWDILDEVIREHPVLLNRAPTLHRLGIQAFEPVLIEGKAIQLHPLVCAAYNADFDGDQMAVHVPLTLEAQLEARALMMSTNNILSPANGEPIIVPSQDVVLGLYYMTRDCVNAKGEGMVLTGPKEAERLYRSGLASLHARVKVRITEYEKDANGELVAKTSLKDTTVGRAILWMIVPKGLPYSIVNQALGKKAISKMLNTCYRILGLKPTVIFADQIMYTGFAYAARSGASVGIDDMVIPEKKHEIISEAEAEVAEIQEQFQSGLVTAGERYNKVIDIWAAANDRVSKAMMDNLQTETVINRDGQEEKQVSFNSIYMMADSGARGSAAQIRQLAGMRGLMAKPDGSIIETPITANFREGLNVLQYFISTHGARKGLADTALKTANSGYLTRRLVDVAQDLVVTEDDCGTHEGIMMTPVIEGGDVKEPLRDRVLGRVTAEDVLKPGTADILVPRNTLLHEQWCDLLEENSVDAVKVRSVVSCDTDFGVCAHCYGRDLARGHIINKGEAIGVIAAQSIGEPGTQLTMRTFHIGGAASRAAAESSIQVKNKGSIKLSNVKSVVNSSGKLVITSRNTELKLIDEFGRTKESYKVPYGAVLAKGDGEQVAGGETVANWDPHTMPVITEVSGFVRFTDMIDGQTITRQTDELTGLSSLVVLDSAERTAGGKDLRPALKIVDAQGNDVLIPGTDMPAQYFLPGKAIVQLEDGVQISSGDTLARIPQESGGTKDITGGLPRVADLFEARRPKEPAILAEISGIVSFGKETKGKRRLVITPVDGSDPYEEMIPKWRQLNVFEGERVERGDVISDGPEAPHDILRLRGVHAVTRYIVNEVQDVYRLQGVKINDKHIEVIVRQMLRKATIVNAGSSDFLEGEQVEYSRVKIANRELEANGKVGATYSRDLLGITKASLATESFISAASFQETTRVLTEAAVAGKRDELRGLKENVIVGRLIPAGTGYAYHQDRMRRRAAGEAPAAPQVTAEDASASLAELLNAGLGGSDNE
Sequence of E. coli RNA polymerase σ^70 holoenzyme (P0A7Z4 whole entry partner): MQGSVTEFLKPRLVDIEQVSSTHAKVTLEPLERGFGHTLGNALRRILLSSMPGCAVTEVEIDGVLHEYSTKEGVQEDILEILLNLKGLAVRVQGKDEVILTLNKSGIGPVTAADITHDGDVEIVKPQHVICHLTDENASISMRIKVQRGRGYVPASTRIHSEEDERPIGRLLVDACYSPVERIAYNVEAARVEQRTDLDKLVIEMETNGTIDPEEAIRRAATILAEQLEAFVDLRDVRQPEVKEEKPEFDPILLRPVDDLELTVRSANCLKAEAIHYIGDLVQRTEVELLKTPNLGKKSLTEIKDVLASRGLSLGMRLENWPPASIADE
Sequence of E. coli RNA polymerase σ^70 holoenzyme (P0A800 whole entry partner): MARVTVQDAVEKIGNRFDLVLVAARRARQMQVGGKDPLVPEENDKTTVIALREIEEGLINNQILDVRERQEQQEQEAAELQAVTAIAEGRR
Sequence of E. coli RNA polymerase σ^70 holoenzyme (P00579 whole entry partner): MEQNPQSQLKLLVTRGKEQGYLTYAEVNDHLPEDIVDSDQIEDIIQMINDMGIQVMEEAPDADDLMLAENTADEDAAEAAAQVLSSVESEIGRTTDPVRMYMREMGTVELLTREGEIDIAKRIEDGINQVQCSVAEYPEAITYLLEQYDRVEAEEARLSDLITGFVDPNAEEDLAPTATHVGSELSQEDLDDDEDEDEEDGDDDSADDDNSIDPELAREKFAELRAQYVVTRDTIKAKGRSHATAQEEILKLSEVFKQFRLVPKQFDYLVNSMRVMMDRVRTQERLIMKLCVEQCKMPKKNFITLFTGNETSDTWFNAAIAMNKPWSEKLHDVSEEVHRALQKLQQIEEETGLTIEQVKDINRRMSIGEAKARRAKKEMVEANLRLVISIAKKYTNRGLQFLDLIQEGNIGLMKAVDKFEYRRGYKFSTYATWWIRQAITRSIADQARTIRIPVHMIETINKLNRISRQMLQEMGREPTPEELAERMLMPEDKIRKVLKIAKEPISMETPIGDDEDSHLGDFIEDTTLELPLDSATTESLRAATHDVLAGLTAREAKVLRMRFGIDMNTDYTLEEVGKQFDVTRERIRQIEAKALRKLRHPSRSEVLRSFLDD
Data set [9] deals with Escherichia coli D212f2tolC. The settings on record: MIC in presence of 10% mouse serum divided by MIC in absence of 10% mouse serum.
Experiment in data set [10]: not given
The source holds these as a separate data set.

Data set [11] concerns Brucella melitensis strain 16M. Description: microbe, parasite or virus in culture. It counts as cell-based.
Data set [12] is described as follows: physchem. The settings on record: pH 7.4.
Data set [13] can be described thus: Metabolic stability in the presence of human liver microsomes. On the technique in general: Liver microsomes are a subcellular fraction often used to study metabolism.
Where [14] appears, read: read-out: IC50 M. tuberculosis RNAP.

These results are taken from patent US9187446B2, “Antibacterial agents: sidechainfluorinated myxopyronin derivatives” (RUTGERS, THE STATE UNIVERSITY OF NEW JERSEY, priority 2012, dated 2015).

In brackets after ≈: the same amount, converted by molar mass. Like-named read-outs stand apart in the source and are kept apart here. Some results are limits rather than exact numbers.

In the case of `CCCC/C(C)=C/C=C(\C)C(=O)c1c(O)cc([C@H](C)CC/C=C/NC(=O)OC)oc1=O` (racemic) [Myx B, (±)myxopyronin B, reference compound], the “half-life human liver microsomes” value came to 3 min. The “MIC B. mallei CHN7” value in [1] (broth microdilution) was determined as 6 µg/mL (≈ 13.9 µM). In addition, in data set [2] (broth microdilution), the “MIC B. anthracis Vollum1b” value was 6 µg/mL (≈ 13.9 µM). The IC50 – broadly, the midpoint of a concentration-inhibition curve – in [3] (read-out: IC50 S. aureus RNAP) came out at 70 nM. In addition, in data set [4] (broth microdilution), the “MIC B. pseudomallei Human/Blood/OH/US/1994” value came to 30 µg/mL (≈ 69.5 µM). The “MIC E. faecalis 19433” value in data set [5] (16 h at 37° C., Mueller-Hinton II agar) was found to be 20 µg/mL (≈ 46.3 µM). Moreover, the IC50 in data set [6] (setting [14]) came to 100 nM. For the same molecule, in data set [7] (broth microdilution), the “MIC F. tularensis SCHU4” value is 2 µg/mL (≈ 4.63 µM). Further, the IC50 in data set [8] is 10 nM. Moreover, in [9], the serum shift is 16. In [10], the “logD (pH 7.4)” value was determined as 1.8. Besides, in data set [11] (broth microdilution), the “MIC B. melitensis 16M” value amounted to 3 µg/mL (≈ 6.95 µM).
`COC(=O)N/C=C/CCC(C)c1cc(O)c(C(=O)/C(C)=C/C=C(\C)CCC(F)(F)F)c(=O)o1` (stereo not drawn) [compound 5]: the IC50 in [3] (read-out: IC50 S. aureus RNAP) was 100 nM; in [6] (setting [14]), 100 nM; in [8], 4 nM. In data set [5], the MIC was above 40 µg/mL. Moreover, the serum shift in [9] is on record as 8.
Take `COC(=O)N/C=C/CCC(C)c1cc(O)c(C(=O)/C(C)=C/C=C(\C)CCCC(F)(F)F)c(=O)o1` (stereo not drawn) [compound 1, Methyl ((E)-5-(4-hydroxy-2-oxo-3-((2E,4E)-9,9,9-trifluoro-2,5-dimethylnona-2,4-dienoyl)-2H-pyran-6-yl)hex-1-en-1-yl)carbamate]: the MIC in data set [1] (Burkholderia mallei, CHN7, read-out: MIC B. mallei CHN7) was determined as 10 µg/mL (≈ 20.6 µM); in [2] (Bacillus anthracis, VOLLUM1B, read-out: MIC B. anthracis Vollum1b) it was 6 µg/mL (≈ 12.4 µM); in data set [4] (Burkholderia pseudomallei, read-out: MIC B. pseudomallei Human/Blood/OH/US/1994), 50 µg/mL (≈ 103 µM); in [5], 9 µg/mL (≈ 18.5 µM); in [7] (Francisella tularensis, SCHU4, read-out: MIC F. tularensis SCHU4) it was 3 µg/mL (≈ 6.18 µM); in [11] (Brucella melitensis, 16M, read-out: MIC B. melitensis 16M), 6 µg/mL (≈ 12.4 µM). Moreover, the IC50 in data set [3] (read-out: IC50 S. aureus RNAP) is 10 nM; in [6] (setting [14]), 30 nM; in data set [8], 4 nM. The log distribution coefficient (logD) (in general, lipophilicity at a set pH, counting ionised and neutral species) in [12] came out at 1.4. The serum shift in data set [9] came out at 8. Further, in data set [13] (human liver microsomes, relative to Myx B), the “higher metabolic stability than (±)myxopyronin B” value was in the range of 4 to 5 times. Besides, in data set [13] (human, liver microsomes), the half-life (commonly the time in which the quantity being followed falls by half) is 14 min.
As for `COC(=O)N/C=C/CCCc1cc(O)c(C(=O)/C(C)=C/C=C(\C)CCCC(F)(F)F)c(=O)o1` [compound 9, Methyl ((E)-5-(4-hydroxy-2-oxo-3-((2E,4E)-9,9,9-trifluoro-2,5-dimethylnona-2,4-dienoyl)-2H-pyran-6-yl)pent-1-en-1-yl)carbamate], in [5], the MIC is 10 µg/mL (≈ 21.2 µM). Besides, the IC50 in data set [6] (setting [14]) was found to be 60 nM; in data set [8], 5 nM. For the same molecule, the serum shift in data set [9] was determined as 8.
Take `COC(=O)N/C=C/CCCc1cc(O)c(C(=O)/C(C)=C/C=C(\C)CCC(F)(F)F)c(=O)o1` [compound 11, Methyl ((E)-5-(4-hydroxy-2-oxo-3-((2E,4E)-8,8,8-trifluoro-2,5-dimethylocta-2,4-dienoyl)-2H-pyran-6-yl)pent-1-en-1-yl)carbamate]: the MIC in data set [5] was above 40 µg/mL. The IC50 in [8] was found to be 20 nM. For the same molecule, the serum shift in [9] amounted to 4.
Consider `COC(=O)N/C=C/CCC(C)c1cc(O)c(C(=O)/C(C)=C/C=C(\C)CCCCC(F)(F)F)c(=O)o1` (stereo not drawn) [compound 3, Methyl ((E)-5-(4-hydroxy-2-oxo-3-((2E,4E)-10,10,10-trifluoro-2,5-dimethyldeca-2,4-dienoyl)-2H-pyran-6-yl)hex-1-en-1-yl)carbamate], for which the IC50 in [3] was 40 nM; in data set [6], 200 nM; in data set [8], 10 nM. Further, the MIC in data set [5] turned out to be 10 µg/mL (≈ 20 µM). In data set [9], the serum shift was determined as 16.
